Assay results from ChEMBL document CHEMBL5500376, “Novel pyxinol amide derivatives bearing an aliphatic heterocycle as P-glycoprotein modulators for overcoming multidrug resistance” (Eur J Med Chem, 2024).
Values joined by “and” are separate entries in the source; they are usually repeats but may differ in a detail not shown here. Equal entries are not always repeated. Structures can show the parent of a compound that is named as a salt. Active and inactive are the calls of the source. The calls are words filed in the database; no cut-off is given here.

Legend:
[1] = Cytotoxicity against human HK-2 cells assessed as cell survival measured after 72 hrs incubation by MTT assay; assay type: toxicity, cell-based
[2] = Reversal fold, ratio of PTX IC50 to PTX IC50 in presence of test compound for reversal of multi-drug resistance in human KVB cells at 10 uM measured after 72 hrs by MTT assay; assay type: functional, KBV
[3] = Cytotoxicity against human KBV cells assessed as cell survival measured after 72 hrs incubation by MTT assay; assay type: functional, cell-based
[4] = target: T1, ATP-dependent translocase ABCB1 (Homo sapiens, UniProt P08183); assay: Inhibition of P-gp-mediated rhodamine-123 efflux in human KVB cells assessed as increase in intracellular Rhodamine-123 accumulation at 10 uM incubated for 30 mins by flow cytometry; assay type: cell-based; details: kbv, 0.5 h
T1 sequence (P08183 whole entry): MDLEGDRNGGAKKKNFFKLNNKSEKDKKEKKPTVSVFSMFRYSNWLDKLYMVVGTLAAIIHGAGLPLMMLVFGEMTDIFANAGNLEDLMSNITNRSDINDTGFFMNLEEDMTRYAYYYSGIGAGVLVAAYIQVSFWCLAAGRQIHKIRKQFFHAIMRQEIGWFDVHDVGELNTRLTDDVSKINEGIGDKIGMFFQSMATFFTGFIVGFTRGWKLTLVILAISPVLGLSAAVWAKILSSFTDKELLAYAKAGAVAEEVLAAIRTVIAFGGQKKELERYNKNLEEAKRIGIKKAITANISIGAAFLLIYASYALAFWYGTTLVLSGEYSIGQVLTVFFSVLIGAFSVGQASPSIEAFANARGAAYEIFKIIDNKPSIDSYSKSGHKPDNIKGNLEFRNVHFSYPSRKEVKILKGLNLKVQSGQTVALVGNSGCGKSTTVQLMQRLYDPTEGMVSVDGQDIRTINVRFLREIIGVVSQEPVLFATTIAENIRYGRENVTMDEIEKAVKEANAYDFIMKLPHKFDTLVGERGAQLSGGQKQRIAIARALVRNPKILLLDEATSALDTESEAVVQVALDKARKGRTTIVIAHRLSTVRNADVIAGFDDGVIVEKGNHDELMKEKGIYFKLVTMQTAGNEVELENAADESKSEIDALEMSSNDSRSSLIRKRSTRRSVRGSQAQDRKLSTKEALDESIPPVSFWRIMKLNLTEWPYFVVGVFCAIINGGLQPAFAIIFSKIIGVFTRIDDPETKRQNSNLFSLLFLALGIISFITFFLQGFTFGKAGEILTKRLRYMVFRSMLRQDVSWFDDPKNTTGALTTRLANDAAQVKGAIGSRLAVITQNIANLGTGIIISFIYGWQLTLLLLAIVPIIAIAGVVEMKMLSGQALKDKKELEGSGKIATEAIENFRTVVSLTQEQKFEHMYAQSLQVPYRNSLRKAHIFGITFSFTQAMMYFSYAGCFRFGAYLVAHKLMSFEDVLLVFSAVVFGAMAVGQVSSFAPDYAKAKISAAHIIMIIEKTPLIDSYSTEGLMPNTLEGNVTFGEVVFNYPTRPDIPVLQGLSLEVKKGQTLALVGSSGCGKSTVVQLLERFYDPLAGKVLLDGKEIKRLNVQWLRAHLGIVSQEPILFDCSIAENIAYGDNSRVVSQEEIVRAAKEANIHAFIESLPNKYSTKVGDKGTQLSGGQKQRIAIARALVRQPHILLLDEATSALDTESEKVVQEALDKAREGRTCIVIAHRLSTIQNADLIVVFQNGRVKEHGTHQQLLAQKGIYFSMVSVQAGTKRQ

[5] = Cytotoxicity against HUVEC cells assessed as cell survival measured after 72 hrs incubation by MTT assay; assay type: toxicity, cell-based; details: human
KBV [6] = assay: Potentiation of PTX-mediated inhibition of colony formation of human KVB cells assessed as reduction in colonies measured after 48 hrs by crystal violet staining based analysis; assay type: functional, cell-based; details: dose […] µM
[7] = Reversal fold, ratio of 5-fluorouracil IC50 to 5-fluorouracil IC50 in presence of test compound for reversal of multi-drug resistance in human KVB cells at 5 uM measured after 72 hrs by MTT assay; assay type: functional, KBV
[8] = Reversal fold, ratio of ADR IC50 to ADR IC50 in presence of test compound for reversal of multi-drug resistance in human KVB cells at 5 uM measured after 72 hrs by MTT; assay type: functional, KBV
[9] = target: T1, ATP-dependent translocase ABCB1; assay: Inhibition of P-gp-mediated rhodamine-123 efflux in human KVB cells assessed as increase in intracellular Rhodamine-123 accumulation incubated for 30 mins by flow cytometry; assay type: cell-based; details: kbv, 0.5 h, at 2.5 to 10 µM, dose 2.5-10 µM
[10] = target: T1, ATP-dependent translocase ABCB1; assay: Thermal stabilization of P-gp in human KVB cells at 58 to 61 degreeC by CETSA assay; assay type: cell-based; details: kbv
[11] = target: Multidrug resistance-associated protein 1 (Homo sapiens, UniProt P33527); assay: Thermal stabilization of ABCC1 in human KVB cells by CETSA assay; assay type: cell-based; details: kbv
Multidrug resistance-associated protein 1, sequence (P33527 whole entry): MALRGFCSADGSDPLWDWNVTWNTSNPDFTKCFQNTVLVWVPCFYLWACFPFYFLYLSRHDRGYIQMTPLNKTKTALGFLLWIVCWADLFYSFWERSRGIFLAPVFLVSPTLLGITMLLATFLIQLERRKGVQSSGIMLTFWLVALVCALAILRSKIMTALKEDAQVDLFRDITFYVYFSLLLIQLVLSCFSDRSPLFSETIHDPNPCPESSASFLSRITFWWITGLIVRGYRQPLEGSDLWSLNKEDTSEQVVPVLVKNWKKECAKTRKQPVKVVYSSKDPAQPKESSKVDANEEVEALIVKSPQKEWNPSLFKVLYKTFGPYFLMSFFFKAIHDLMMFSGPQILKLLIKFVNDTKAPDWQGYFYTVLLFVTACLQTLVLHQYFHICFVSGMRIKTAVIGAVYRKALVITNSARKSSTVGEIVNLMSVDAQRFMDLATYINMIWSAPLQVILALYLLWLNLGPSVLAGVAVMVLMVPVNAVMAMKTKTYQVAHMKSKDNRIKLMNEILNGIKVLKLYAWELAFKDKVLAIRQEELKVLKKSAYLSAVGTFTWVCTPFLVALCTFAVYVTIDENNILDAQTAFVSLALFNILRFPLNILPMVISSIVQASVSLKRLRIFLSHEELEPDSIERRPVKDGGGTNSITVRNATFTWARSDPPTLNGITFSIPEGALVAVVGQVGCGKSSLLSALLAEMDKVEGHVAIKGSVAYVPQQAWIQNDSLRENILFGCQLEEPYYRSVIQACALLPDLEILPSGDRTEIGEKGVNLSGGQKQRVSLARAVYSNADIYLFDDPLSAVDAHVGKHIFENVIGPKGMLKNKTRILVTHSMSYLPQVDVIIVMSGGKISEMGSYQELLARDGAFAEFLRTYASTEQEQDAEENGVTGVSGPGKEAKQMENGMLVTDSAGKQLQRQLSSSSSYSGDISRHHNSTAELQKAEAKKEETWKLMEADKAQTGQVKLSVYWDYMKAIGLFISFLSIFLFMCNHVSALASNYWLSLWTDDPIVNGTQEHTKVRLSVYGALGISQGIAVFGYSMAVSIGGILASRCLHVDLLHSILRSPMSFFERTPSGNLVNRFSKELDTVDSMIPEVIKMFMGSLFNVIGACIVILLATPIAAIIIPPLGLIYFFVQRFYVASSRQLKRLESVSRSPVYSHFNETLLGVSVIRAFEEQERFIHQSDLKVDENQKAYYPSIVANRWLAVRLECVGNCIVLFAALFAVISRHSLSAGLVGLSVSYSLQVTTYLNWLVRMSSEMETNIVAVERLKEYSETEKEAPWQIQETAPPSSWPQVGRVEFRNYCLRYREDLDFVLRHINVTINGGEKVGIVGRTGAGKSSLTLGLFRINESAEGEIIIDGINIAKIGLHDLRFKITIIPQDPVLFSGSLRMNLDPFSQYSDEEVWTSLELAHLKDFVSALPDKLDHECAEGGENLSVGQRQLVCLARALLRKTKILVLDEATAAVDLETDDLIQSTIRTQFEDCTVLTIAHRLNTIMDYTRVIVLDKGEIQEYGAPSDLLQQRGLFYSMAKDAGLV

[12] = target: T2, Broad substrate specificity ATP-binding cassette transporter ABCG2 (Homo sapiens, UniProt Q9UNQ0); assay: Thermal stabilization of ABCG2 in human KVB cells by CETSA assay; assay type: cell-based; details: kbv
T2 sequence (Q9UNQ0 whole entry): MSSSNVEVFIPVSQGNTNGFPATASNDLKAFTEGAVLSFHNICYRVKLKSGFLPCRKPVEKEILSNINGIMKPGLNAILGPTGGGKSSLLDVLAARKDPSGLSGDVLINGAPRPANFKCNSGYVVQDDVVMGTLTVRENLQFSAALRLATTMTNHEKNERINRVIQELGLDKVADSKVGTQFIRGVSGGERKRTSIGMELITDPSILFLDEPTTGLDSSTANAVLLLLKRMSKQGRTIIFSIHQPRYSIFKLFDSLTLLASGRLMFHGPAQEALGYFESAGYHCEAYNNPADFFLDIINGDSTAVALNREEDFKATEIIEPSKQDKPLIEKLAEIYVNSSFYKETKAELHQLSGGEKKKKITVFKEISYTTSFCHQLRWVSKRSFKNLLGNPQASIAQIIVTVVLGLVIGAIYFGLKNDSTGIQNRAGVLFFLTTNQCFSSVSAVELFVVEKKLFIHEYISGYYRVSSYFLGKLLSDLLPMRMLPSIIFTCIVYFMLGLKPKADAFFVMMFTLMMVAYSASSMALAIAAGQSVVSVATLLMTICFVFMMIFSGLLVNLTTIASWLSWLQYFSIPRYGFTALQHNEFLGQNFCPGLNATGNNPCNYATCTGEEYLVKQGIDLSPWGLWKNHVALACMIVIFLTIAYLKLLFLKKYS

[13] = Reversal of multi-drug resistance in human KVB cells assessed as increase in PTX-induced cytotoxicity by measuring cell survival at 5 uM measured after 72 hrs incubation in presence of 100 nM paclitaxel by MTT assay relative to control; assay type: functional, KBV
[14] = Reversal of multi-drug resistance in human KVB cells assessed as increase in PTX-induced cytotoxicity by measuring cell survival at 10 uM measured after 72 hrs incubation in presence of 100 nM paclitaxel by MTT assay relative to control; assay type: functional, KBV
KBV [15] = assay: Reduction in P-gp protein level in human KVB cells at 10 uM measured upto 96 hrs incubation by Western blot analysis; assay type: functional, cell-based
[16] = Reversal fold, ratio of cisplatin IC50 to cisplatin IC50 in presence of test compound for reversal of multi-drug resistance in human KVB cells at 10 uM measured after 72 hrs by MTT assay; assay type: functional, KBV
[17] = Reversal fold, ratio of ADR IC50 to ADR IC50 in presence of test compound for reversal of multi-drug resistance in human KVB cells at 10 uM measured after 72 hrs by MTT; assay type: functional, KBV
KBV [18] = assay: Potentiation of PTX-mediated antimigratory activity against human KVB cells assessed as inhibition of cell migration at 2.5 to 10 uM and incubated for 24 hrs in presence of 50 nM by scratch wound healing assay; assay type: functional, cell-based; details: dose 2.5-10 µM
[19] = Reversal fold, ratio of 5-fluorouracil IC50 to 5-fluorouracil IC50 in presence of test compound for reversal of multi-drug resistance in human KVB cells at 10 uM measured after 72 hrs by MTT assay; assay type: functional, KBV
[20] = Cytotoxicity against human KBV cells assessed as cell survival at 10 uM measured after 72 hrs incubation by MTT assay relative to control; assay type: functional; details: read-out: Activity
[21] = Reversal fold, ratio of cisplatin IC50 to cisplatin IC50 in presence of test compound for reversal of multi-drug resistance in human KVB cells at 5 uM measured after 72 hrs by MTT assay; assay type: functional, KBV
KBV [22] = assay: Effect on P-gp sub-cellular localization in human KVB cells at 10 uM measured for 48 hrs incubation by immunofluorescence assay; assay type: functional, cell-based
[23] = target: T1, ATP-dependent translocase ABCB1; assay: Substrate activity at Pgp in human KVB cells assessed as intracellular accumulation measured after 4 hrs by LC-MS/MS analysis; assay type: cell-based; details: kbv
[24] = target: T1, ATP-dependent translocase ABCB1; assay: Inhibition of P-gp-mediated Ptx-C efflux in human KVB cells assessed as increase in fluorescence intensity incubated for 3 hrs by confocal microscopic analysis; assay type: cell-based; details: kbv, at 2.5 to 10 µM, dose 2.5-10 µM
[25] = Reversal fold, ratio of cisplatin IC50 to cisplatin IC50 in presence of test compound for reversal of multi-drug resistance in human KVB cells at 25 uM measured after 72 hrs by MTT assay; assay type: functional, KBV
KBV [26] = assay: Antimigratory activity against human KVB cells assessed as inhibition of cell migration at 50 nM and incubated for 24 hrs by scratch wound healing assay; assay type: functional, cell-based
KBV [27] = assay: Inhibition of colony formation of human KVB cells assessed as reduction in colonies at 2.5 uM measured after 48 hrs by crystal violet staining based analysis; assay type: functional, cell-based
[28] = Reversal fold, ratio of PTX IC50 to PTX IC50 in presence of test compound for reversal of multi-drug resistance in human KVB cells at 5 uM measured after 72 hrs by MTT; assay type: functional, KBV
[29] = Cytotoxicity against human KBV cells assessed as cell survival at 5 uM measured after 72 hrs incubation by MTT assay relative to control; assay type: functional; details: read-out: Activity

SMILES: COc1cc2c(cc1OC)CN(CCc1ccc(NC(=O)c3cc(OC)c(OC)cc3NC(=O)c3cnc4ccccc4c3)cc1)CC2
- IC50 at 72 h ([1]; read-out: IC50): 8.03 µM
- Ratio [2]: 206.6
- IC50 [3]: 8.66 µM
- inhibition (INH) [4]: Active
- IC50 at 72 h [5]: 40.3 µM

SMILES: CC(C)(C)OC(=O)N1CC(CC(=O)N[C@H]2CC[C@]3(C)[C@H]4C[C@@H](O)[C@@H]5[C@@H]([C@]6(C)CC[C@H](C(C)(C)O)O6)CC[C@@]5(C)[C@]4(C)CC[C@H]3C2(C)C)C1
- IC50 at 72 h ([1]; read-out: IC50): 63.1 µM
- Activity (KBV [6]): Dose-Dependent Effect
- Ratio IC50 [7]: 1
- Ratio [2]: 211.8
- Ratio IC50 [8]: 7.9
- inhibition (INH) [9]: Dose-Dependent Effect
- IC50 [3]: 44.9 µM
- Activity [10]: Active
- Activity [11]: Not Active
- Activity [12]: Not Active
- Activity [13]: 36%
- Activity [14]: 23%
- Activity (KBV [15]): inactive
- Ratio IC50 [16]: 1
- Ratio IC50 [17]: 14.8
- IC50 at 72 h [5]: > 100 µM
- Activity (KBV [18]): Active
- Ratio IC50 [19]: 1.1
- viability at 10 µM [20]: 92%
- Ratio IC50 [21]: 1
- Activity (KBV [22]): inactive
- Activity [23]: Active
- inhibition (INH) [24]: Dose-Dependent Effect

SMILES: COc1ccc2c3c([nH]c2c1)[C@H](CC(C)C)N1C(=O)[C@H](CCC(=O)OC(C)(C)C)NC(=O)[C@@H]1C3
- Ratio IC50 [19]: 3.2

SMILES: COc1ccc(CCN(C)CCCC(C#N)(c2ccc(OC)c(OC)c2)C(C)C)cc1OC (stereo not given)
- IC50 at 72 h [1]: 53.4 µM
- IC50 at 72 h [5]: > 100 µM
- Activity [23]: Active

SMILES: CC(C)(C)OC(=O)N1CCC[C@@H]1C(=O)N[C@H]1CC[C@]2(C)[C@H]3C[C@@H](O)[C@@H]4[C@@H]([C@]5(C)CC[C@H](C(C)(C)O)O5)CC[C@@]4(C)[C@]3(C)CC[C@H]2C1(C)C
- Ratio [2]: 157.7
- Activity [13]: 36%
- Activity [14]: 21%
- viability at 10 µM [20]: 88%
- Activity [23]: Active

SMILES: CC(C)(C)OC(=O)NCCCCCC(=O)N[C@H]1CC[C@]2(C)[C@H]3C[C@@H](O)[C@@H]4[C@@H]([C@]5(C)CC[C@H](C(C)(C)O)O5)CC[C@@]4(C)[C@]3(C)CC[C@H]2C1(C)C
- Activity [23]: Active

SMILES: CN(C)C(=O)CCSC(SCCC(=O)O)c1cccc(/C=C/c2ccc3ccc(Cl)cc3n2)c1 (stereo not given) [MK-571]
- Ratio IC50 [25]: 6.4

SMILES: CC(C)(O)[C@H]1CC[C@@](C)([C@H]2CC[C@]3(C)[C@@H]2[C@H](O)C[C@@H]2[C@@]4(C)CC[C@H](NC(=O)[C@@H]5CCCN5)C(C)(C)[C@@H]4CC[C@]23C)O1
- Ratio [2]: 65.1
- Activity [13]: 38%
- Activity [14]: 30%
- viability at 10 µM [20]: 100%
- Activity [23]: Not Active

SMILES: CC(C)(C)OC(=O)N1C[C@H](F)C[C@H]1C(=O)N[C@H]1CC[C@]2(C)[C@H]3C[C@@H](O)[C@@H]4[C@@H]([C@]5(C)CC[C@H](C(C)(C)O)O5)CC[C@@]4(C)[C@]3(C)CC[C@H]2C1(C)C
- Ratio [2]: 102.4
- Activity [13]: 46%
- Activity [14]: 26%
- viability at 10 µM [20]: 114%

SMILES: CC(=O)O[C@H]1C(=O)[C@@]2(C)[C@H]([C@H](OC(=O)c3ccccc3)[C@]3(O)C[C@H](OC(=O)[C@H](O)[C@@H](NC(=O)c4ccccc4)c4ccccc4)C(C)=C1C3(C)C)[C@]1(OC(C)=O)CO[C@@H]1C[C@@H]2O
- Activity (KBV [26]): inactive
- Activity (KBV [27]): inactive

SMILES: CC(C)(C)OC(=O)N1CCCC[C@H]1C(=O)N[C@H]1CC[C@]2(C)[C@H]3C[C@@H](O)[C@@H]4[C@@H]([C@]5(C)CC[C@H](C(C)(C)O)O5)CC[C@@]4(C)[C@]3(C)CC[C@H]2C1(C)C
- Ratio [2]: 66
- Activity [13]: 61%
- Activity [14]: 26%
- viability at 10 µM [20]: 102%

SMILES: O=c1[nH]cc(F)c(=O)[nH]1 [FLUOROURACIL]
- IC50 [3]: 829 µM

SMILES: CC(C)(O)[C@H]1CC[C@@](C)([C@H]2CC[C@]3(C)[C@@H]2[C@H](O)C[C@@H]2[C@@]4(C)CC[C@H](NC(=O)[C@@H]5CCCCN5)C(C)(C)[C@@H]4CC[C@]23C)O1
- Activity [13]: 41%
- Ratio IC50 [28]: 116.7
- viability at 5 µM [29]: 96%
- Activity [23]: Active

SMILES: CC(C)(O)[C@H]1CC[C@@](C)([C@H]2CC[C@]3(C)[C@@H]2[C@H](O)C[C@@H]2[C@@]4(C)CC[C@H](O)C(C)(C)[C@@H]4CC[C@]23C)O1
- Activity [23]: Not Active

SMILES: COc1cccc2c1C(=O)c1c(O)c3c(c(O)c1C2=O)C[C@@](O)(C(=O)CO)C[C@@H]3O[C@H]1C[C@H](N)[C@H](O)[C@H](C)O1 [DOXORUBICIN HYDROCHLORIDE]
- IC50 [3]: 8.19 µM

SMILES: CC(C)(O)[C@H]1CC[C@@](C)([C@H]2CC[C@]3(C)[C@@H]2[C@H](O)C[C@@H]2[C@@]4(C)CC[C@H](NC(=O)[C@H]5CCCCN5)C(C)(C)[C@@H]4CC[C@]23C)O1
- Ratio ([2]; 72 h, 10 µM): 89.1 and 106.3
- Activity [13]: 56%
- Activity [14]: 28%
- viability at 10 µM [20]: 99%
